What all share (assay type): physicochemical
A short description of series [1]: oxidation potential E1 by cyclic voltammetry. To be noted: for E1 (V) for XY moiety: Table H, model compound, A and L replaced by alkyl. The gist of the method: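 Compound in 80:20 (v/v) acetonitrile/water with 0.1M lithium perchlorate, nitrogen-purged 10 minutes. Glassy carbon working, platinum wire counter and saturated calomel reference electrodes; 25° C, sweep rate 0.1 V/sec. E1 is the voltammetric peak potential vs. SCE.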

Series [2] in a line: fragmentation rate constant kfr by laser flash photolysis. As to conditions: Table H; model compound, A and L replaced by alkyl. The gist of the method: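 DCA excited by laser in presence of biphenyl and ca. 10^-2 M donor generates X-Y radical cation; its decay was monitored at mostly 470-530 nm. Run in acetonitrile with 20% water, mostly at room temperature, some rates extrapolated from temperature dependence; oxygen purging used for decays below 10^6 s^-1.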

Series [3] can be described thus: oxidation potential E2 of radical X by laser flash photolysis. As to conditions: Table H; model compound, A and L replaced by alkyl. The gist of the method: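 Radical X· generated by fragmentation of X-Y·+, formed via 410 nm laser-excited cyanoanthracene (ca. 2×10^-5–10^-4 M) with biphenyl (ca. 0.1 M) cosensitiser and X-Y (ca. 10^-3 M) in acetonitrile or 80:20 acetonitrile/water. E2 bracketed by observing second-acceptor reduction (DCA −0.91 V, TriCA −0.67 V, TCA −0.44 V) by transient absorption near 705–715 nm.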

Molecules are shown by their SMILES. Where a name gives a salt, the structure may show the parent alone. Where only a bound is given, the exact number is not on record here.

As to `CCSCCN(c1ccc(C)cc1)[C@@H](C)C(=O)[O-].[Na+]` [Compound S-3, N-(4-Methylphenyl)-N-(2-ethylthio-ethyl)alanine sodium salt], the “E1 (V) for XY moiety” value in series [1] worked out at 0.34 V. Further, the “E1 (V)” value in series [1] (Table II) is on record as 0.47 V; in series [1] (Table III), 0.38 V; in series [1] (Table X), 0.38 V. The “kfr (s^-1) for XY moiety” value in series [2] came to 6e+07 s⁻¹. Moreover, the “E2 (V) for XY moiety” value in series [3] is reported as less than -0.9 V.
Turning to `CCSCCN(c1ccc(C)cc1)C(CC(=O)O)C(=O)O` (stereo not drawn) [Compound S-8], in series [1], the “E1 (V) for XY moiety” value stood at 0.38 V. The “E1 (V)” value in series [1] (Table III) and in series [1] (Table X) was 0.45 V in each case. The “kfr (s^-1) for XY moiety” value in series [2] is 1.3e+07 s⁻¹. Besides, the “E2 (V) for XY moiety” value in series [3] was less than -0.9 V.
Consider `CCSCCN(c1ccccc1)C(C)C(=O)O` (stereo not drawn) [Compound S-9, N-(Phenyl)-N-(2-thioethyl-ethyl)alanine sodium salt], for which the “E1 (V) for XY moiety” value in series [1] is 0.43 V. The “E1 (V)” value in series [1] (Table III), in series [1] (Table IV) and in series [1] (Table X) was 0.43 V in each case. Further, in series [2], the “kfr (s^-1) for XY moiety” value was more than 2e+07 s⁻¹. Also, the “E2 (V) for XY moiety” value in series [3] is less than -0.9 V.
Regarding `CCSCCN(c1ccc(C(=O)O)cc1)C(C)C(=O)O` (stereo not drawn) [Compound S-11], the “E1 (V) for XY moiety” value in series [1] came to 0.54 V. Besides, the “E1 (V)” value was found to be 0.55 V in series [1] (Table IV), 0.54 V in series [1] (Table IX) and 0.54 V in series [1] (Table XI). In addition, the “kfr (s^-1) for XY moiety” value in series [2] was more than 2e+07 s⁻¹. In addition, in series [3], the “E2 (V) for XY moiety” value is less than -0.9 V.
Turning to `CCSCCN(c1ccc(Cl)cc1)C(C)C(=O)O` (stereo not drawn) [Compound S-12, N-(4-Chlorophenyl)-N-(2-thioethyl-ethyl)alanine sodium salt], the “E1 (V) for XY moiety” value in series [1] worked out at 0.40 V. Besides, the “E1 (V)” value in series [1] (Table IV) and in series [1] (Table XI) was 0.51 V throughout. Moreover, the “kfr (s^-1) for XY moiety” value in series [2] is more than 2e+07 s⁻¹. Also, the “E2 (V) for XY moiety” value in series [3] was less than -0.9 V.
For the compound `CCSCCN(c1cccc(C(N)=O)c1)C(C)C(=O)O` (stereo not drawn) [Compound S-13], in series [1], the “E1 (V) for XY moiety” value turned out to be 0.52 V. Moreover, the “E1 (V)” value in series [1] (Table IV), in series [1] (Table IX) and in series [1] (Table XI) was 0.53 V in each case. Moreover, the “kfr (s^-1) for XY moiety” value in series [2] was more than 2e+07 s⁻¹. For the same compound, in series [3], the “E2 (V) for XY moiety” value was less than -0.9 V.
Consider `CCSCCN(c1ccccc1)C(CC(=O)O)C(=O)O` (stereo not drawn) [Compound S-14], for which the “E1 (V) for XY moiety” value in series [1] was determined as 0.48 V. Besides, the “E1 (V)” value in series [1] (Table IX) and in series [1] (Table XI) was 0.51 V each time. Further, in series [2], the “kfr (s^-1) for XY moiety” value is more than 2e+07 s⁻¹. Besides, in series [3], the “E2 (V) for XY moiety” value was less than -0.9 V.
Turning to `Cc1ccc(N(CCC(=O)Nc2cccc(-n3nnnc3S)c2)C(C)C(=O)O)cc1` (stereo not drawn) [PMT-1], the “E1 (V) for XY moiety” value in series [1] was 0.34 V. For the same compound, the “kfr (s^-1) for XY moiety” value in series [2] was more than 2e+07 s⁻¹. In addition, in series [3], the “E2 (V) for XY moiety” value is given as less than -0.9 V.
Regarding `CC(C(=O)O)N(CCC(=O)Nc1cccc(-n2nnnc2S)c1)c1ccccc1` (stereo not drawn) [PMT-2], the “E1 (V) for XY moiety” value in series [1] is listed as 0.43 V. In series [2], the “kfr (s^-1) for XY moiety” value is more than 2e+07 s⁻¹. Further, the “E2 (V) for XY moiety” value in series [3] is less than -0.9 V.

The values above are taken from patent US5747235A, “Silver halide light sensitive emulsion layer having enhanced photographic sensitivity” (Eastman Kodak Company, priority 1996, dated 1998).
